These results are taken from US20230174484A1, “ANTAGONISTS OF GPR39 PROTEIN” (Oregon Health & Science University, priority 2020, published 2023).

In this assay the target is T1, human GPR39 receptor (Homo sapiens, UniProt O43194).
T1 construct: PC3 Cells, Expressing the Endogenous Human GPR39 Receptor; endogenous in cells; host or cells: PC3 (human prostate adenocarcinoma) cells
T1 sequence (O43194 1-453): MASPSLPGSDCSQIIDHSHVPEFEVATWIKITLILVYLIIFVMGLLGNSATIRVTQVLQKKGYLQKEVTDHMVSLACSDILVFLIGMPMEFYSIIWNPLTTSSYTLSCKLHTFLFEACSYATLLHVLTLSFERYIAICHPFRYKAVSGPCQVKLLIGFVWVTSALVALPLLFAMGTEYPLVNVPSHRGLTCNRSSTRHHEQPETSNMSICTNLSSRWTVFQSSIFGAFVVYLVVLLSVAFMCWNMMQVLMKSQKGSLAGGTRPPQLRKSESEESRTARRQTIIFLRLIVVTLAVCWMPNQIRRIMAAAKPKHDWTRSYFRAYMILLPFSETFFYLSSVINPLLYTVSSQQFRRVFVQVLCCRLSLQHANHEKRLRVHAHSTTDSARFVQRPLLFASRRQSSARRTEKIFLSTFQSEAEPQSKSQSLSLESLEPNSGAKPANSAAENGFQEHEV
Kind of assay: Measurement of intracellular calcium response in PC3 cells (FLIPR), antagonism of the C3 agonist response. Type of assay: cell-based. The following applies: functional pKi (modified Cheng-Prusoff), inhibition of the C3 (TC-G 1008) response at EC90, 30 μM ZnCl2, read-out: fpKi activity. As for the experimental part: Human prostate adenocarcinoma (PC3) cells endogenously expressing human GPR39 receptor were seeded into black walls clear-base 384-well plates at a density of 7,500 cells per well in DM EM (Low Glucose) supplemented with 10% heat-inactivated foetal bovine serum and 1% of Pen/Strep and grown overnight at 37° C., 5% CO2. After washing with assay buffer (20 mM HEPES, 137 mM NaCI, 5.4 mM KCI, 10 mM glucose, 0.8 mM MgSO4, 1.3 mM CaCl2, 0.3 mM Na2HPO4, 0.4 mM KH2PO4 4.2 mM NaHCO3, pH 7.4), cells were incubated with Calcium-6 probe (Molecular Devices) at 37° C. for 2h and then equilibrated at RT for 30 minutes on metal block. The fluorescence was measured in real time by Fluorometric Imaging Plate Reader (FLIPR TETRA, Molecular Devices) (excitation wavelength at 470-495 nm, emission wavelength at 515-575 nm).
Compounds of invention were serially diluted in neat DMSO at 1000 fold concentrations and plated into 384-well plates and then 200-fold diluted in assay buffer containing 150 uM ZnCl2 (30 μM final concentration) and […].
Fluorescence was monitored throughout the run assay. The peak of Ca2+stimulation (baseline subtracted) was expressed as percentage of the maximal inhibition of the EC90 C3 response and was plotted versus the concentration of test compound. Curve fitting and IC50 estimations are carried out using a four-parameter logistic model using XLfit Software.
The potency of compounds was reported as functional pKi (—Log10Ki) obtained using the modified Cheng-Prusoff relationship (Cheng, Y., Prusoff, W. H. 1973.)
fKi =IC50/(1+[L]/EC50) where IC50 is the concentration of antagonist required for 50% inhibition of the maximum response, [L] is the concentration of the agonist used (EC90) and EC50 is the concentration of agonist need to induced 50% of the maximum response (obtained in each experimental plate).
An fpKi less than 5.2 is reported as “+/±”. An fpKi ranging from 5.2 to 5.9 is reported as “+”. An fpKi from 6.0 to 6.5 is reported as “++”. An fpKi from 6.6 to 7.2 is reported as “+++”. An fpKi equal to or greater than 7.3 is reported as “++++”.
A general note: Calcium assays in cells follow changes in intracellular calcium, usually with a dye or a luminescent sensor.
For the compound `CC1CCN(c2cc(NC(=O)C3CC3)ccc2C(=O)N2CCC(C(F)(F)F)CC2)C1` (single isomer, unassigned) [Example 63a, (N-[3-(3R or 3S-methylpyrrolidin-l-yl)-4-[4-(trifluoromethyl)piperidine-1-carbonyl]phenyl]cyclopropanecarboxamide], the Ki was not above 50.1 nM.

For `COc1cccc(CN2CCN(C(=O)c3ccc(NC(=O)C4CC4)cc3N3CCCCCC3)CC2)c1` [Example 25, N-(3-(azepan-1-yl)-4-(4-(3-methoxybenzyl)piperazine-1-carbonyl)phenyl) Cyclopropanecarboxamide], the Ki is 316 to 1000 nM.

Take `Cc1nnc(-c2ccc(C(=O)N3CCN(C)CC3c3ccccc3)c(N3CCCC3)c2)[nH]1` (racemic) [Example 150c, (4-methyl-2-phenylpiperazin-1-yl)-[4-(5-methyl-4H-1,2,4-triazol-3-yl)-2-pyrrolidin-1-ylphenyl]methanone]: the Ki was 63.1 to 251 nM.

Take `CCCN1CCN(C(=O)c2ccc(NC(=O)C(C)C)cc2N2CCCCCC2)CC1` [Example 93, N-(3-(azepan-1-yl)-4-(4-propylpiperazine-1-carbonyl)phenyl)isobutyramide]: the Ki lay in the range of 316 to 1000 nM.

With `CC1CC(C)CN(c2cc(NC(=O)C3CC3)ccc2-c2nnc(Sc3ccccc3)n2C)C1` (centres unmarked) [Example 114c, N-[3-(3,5-dimethylpiperidin-1-yl)-4-(4-methyl-5-phenylsulfanyl-1,2,4-triazol-3-yl)phenyl]cyclopropanecarboxamide], the Ki is 63.1 to 251 nM.

With `O=C(Nc1ccc(C(=O)N2CCN(Cc3ccc(F)cc3)CC2)c(N2CCCCCC2)c1)C1CC1` [Example 29, N-(3-(azepan-1-yl)-4-(4-(4-fluorobenzyl)piperazine-1-carbonyl)phenyl) Cyclopropanecarboxamide], the Ki was 63.1 to 251 nM.

Regarding `O=C(Nc1ccc(C(=O)N2CCN(Cc3ccon3)CC2c2ccccc2)c(N2CCCCCC2)c1)C1CC1` (centres unmarked) [Example 82, N-[3-(azepan-1-yl)-4-[4-(1,2-oxazol-3-ylmethyl)-2-phenylpiperazine-1-carbonyl]phenyl]Cyclopropanecarboxamide], the Ki is not above 50.1 nM.

As to `CN1CCN(C(=O)c2ccc(NC(=O)C3CC3)nc2N2CCCC2)C(c2ccccc2)C1` (racemic) [Example 149c, N-[45-(4-methyl-2-phenylpiperazine-1-carbonyl)-6-pyrrolidin-1-ylpyridin-2-yl]cyclopropanecarboxamide], the Ki was in the range of 63.1 to 251 nM.

Take `CN1CCN(C(=O)c2ccc(NC(=O)C3CC3)cc2N2CCCCC2)C(c2ccccc2)C1` (single isomer, unassigned) [Example 201a, N-[4-(4-methyl-(2R or 2S)-phenylpiperazine-1-carbonyl)-3-piperidin-1-ylphenyl]cyclopropanecarboxamide]: the Ki lay in the range of 63.1 to 251 nM.

Turning to `CN1CCN(C(=O)c2ccc(NC(=O)C3CC3)cc2N2CCC3(CCC3)C2)C(c2ccccc2)C1` (racemic) [Example 66c, N-[3-(6-azaspiro[3.4]octan-6-yl)-4-(4-methyl-2-phenylpiperazine-1-carbonyl)phenyl]cyclopropanecarboxamide], the Ki is not above 50.1 nM.

With `CCCN1CCN(C(=O)c2ncc(NC(=O)C3CC3)nc2N2CCCCCC2)CC1` [Example 106, N-[6-(azepan-1-yl)-5-(4-propylpiperazine-1-carbonyl)pyrazin-2-yl]Cyclopropanecarboxamide], the Ki lay in the range of 1260 to 6310 nM.

In the case of `O=C(Nc1ccc(C(=O)N2CCOCC2)c(N2CCCCCC2)c1)C1CC1` [Example 45, N-(3-(azepan-1-yl)-4-(morpholine-4-carbonyl)phenyl)cyclopropanecarboxamide], the Ki is 316 to 1000 nM.

For `CN1CCN(C(=O)c2ccc(NC(=O)C3CC3)cc2N2CCCC2)C(c2cncnc2)C1` (racemic) [Example 175, N-[4-(4-methyl-2-pyrimidin-5-ylpiperazine-1-carbonyl)-3-pyrrolidinylphenyl]cyclopropanecarboxamide], the Ki was 316 to 1000 nM.

Turning to `CN1CCN(C(=O)c2ccc(NC(=O)C3CC3)cc2N2CCC(F)(F)C2)C(c2ccccc2)C1` (single isomer, unassigned) [Example 202b, N-[3-(3,3-difluoropyrrolidin-1-yl)-4-(2R or 2S)-4-methyl-2-phenylpiperazine-1-carbonyl)phenyl]cyclopropanecarboxamide], the Ki was not above 50.1 nM.

In the case of `O=C(c1ccc(-c2nnc(C3CC3)[nH]2)cc1N1CCCC1)N1CCC(C(F)(F)F)CC1` [Example 154], the Ki lay within 63.1 to 251 nM.

`O=C(Nc1ccc(C(=O)N2CCN(c3nccc4ccsc34)CC2)c(N2CCCCCC2)c1)C1CC1` [Example 33, N-[3-(azepan-1-yl)-4-(4-thieno[2,3-c]pyridin-7-ylpiperazine-1-carbonyl)phenyl]Cyclopropanecarboxamide]: the Ki lay in the range of 1260 to 6310 nM.

Regarding `CN1CCN(C(=O)c2ccc(NC(=O)C3CC3)cc2N2CCCC2)C(c2ccccc2Cl)C1` (single isomer, unassigned) [Example 170a, (2R or 2S) N-[4-[2-(2-chlorophenyl)-4-methylpiperazine-1-carbonyl]-3-pyrrolidin-1-ylphenyl] cyclopropanecarboxamide], the Ki was not above 50.1 nM.

As for `O=C(Nc1ccc(C(=O)N2CCS(=O)(=O)CC2)c(N2CCC(C(F)(F)F)C2)c1)C1CC1` (single isomer, unassigned) [Example 183b, N-[4-(1,1-dioxo-1,4-thiazinane-4-carbonyl)-3-[3R or 3S-(trifluoromethyl)pyrrolidin-1-yl]phenyl]cyclopropanecarboxamide], the Ki was in the range of 63.1 to 251 nM.

For the compound `CCCN1CCN(C(=O)c2ccc(NC(=O)CC)cc2N2CCCCCC2)CC1` [Example 94, N-(3-(azepan-1-yl)-4-(4-propylpiperazine-1-carbonyl)phenyl)propionamide], the Ki lay in the range of 316 to 1000 nM.

Take `O=C(Nc1ccc(C(=O)N2CCN(Cc3cc[nH]n3)CC2)c(N2CCCCCC2)c1)C1CC1` [Example 23]: the Ki is 316 to 1000 nM.

For the compound `CSc1nnc(-c2ccc(NC(=O)C3CC3)cc2N2CCCCCC2)n1C` [Example 109, N-[3-(azepan-1-yl)-4-(4-methyl-5-methylsulfanyl-1,2,4-triazol-3-yl)phenyl]Cyclopropanecarboxamide], the Ki was in the range of 1260 to 6310 nM.

On to `CN1CCN(C(=O)c2ccc(NC(=O)C3CC3)cc2-n2cc(C(F)(F)F)cn2)C(c2ccccc2)C1` (centres unmarked) [Example 207, N-[4-(4-methyl-2-phenylpiperazine-1-carbonyl)-3-[4-(trifluoromethyl)pyrazol-1-yl]phenyl]cyclopropanecarboxamide], for which the Ki fell in the range of 316 to 1000 nM.

For `CC(C)C1CCN(c2nc(NC(=O)C3CC3)ccc2C(=O)N2CCS(=O)(=O)CC2)C1` (racemic) [Example 142, N-[5-(1,1-dioxo-1,4-thiazinane-4-carbonyl)-6-(3-propan-2-ylpyrrolidin-1-yl)pyridin-2-yl]cyclopropanecarboxamide], the Ki is not above 50.1 nM.

On to `CN1CCN(C(=O)c2ccc(NC(=O)C3CC3)cc2N2CCCC2)C(c2cccs2)C1` (racemic) [Example 86c, N-[4-(4-methyl-2-thiophen-2-ylpiperazine-1-carbonyl)-3-pyrrolidin-1-ylphenyl]cyclopropanecarboxamide], for which the Ki was not above 50.1 nM.

Take `COc1ccc(CN2CCN(C(=O)c3ccc(NC(=O)C4CC4)cc3N3CCCCCC3)CC2)cc1` [Example 30, N-(3-(azepan-1-yl)-4-(4-(4-methoxybenzyl)piperazine-1-carbonyl)phenyl) cyclopropanecarboxamide]: the Ki was in the range of 316 to 1000 nM.

With `O=C(Nc1ccc(C(=O)N2CCCCC2)c(N2CCCCCC2)c1)C1CC1` [Example 35, N-(3-(azepan-1-yl)-4-(piperidine-1-carbonyl)phenyl)cyclopropanecarboxamide], the Ki was 63.1 to 251 nM.
